Measured values as given in PMC3393750, “Small Molecule Inhibitors of the LEDGF Site of Human Immunodeficiency Virus Integrase Identified by Fragment Screening and Structure Based Design” (PLoS ONE, 2012).
Read-outs that look alike come from different tables or passages of the source.

What was measured:
[1] = target: T1, His6-tagged HIV IN / Flag-tagged LEDGF interaction (Human immunodeficiency virus type 1 group M subtype B, UniProt P12497); assay: IN-LEDGF AlphaScreen (AS) assay; assay type: binding, HIV-1; conditions: 30 nM IN, 30 nM Flag-LEDGF, 30°C
T1 construct: Hexa-His tagged full length HIV IN was expressed and purified as follows; made in house; host or cells: E. coli BL21(DE3), pET28b(+)
Method: (§1) For the IN-LEDGF AS assay, compound dilutions and His6-tagged IN (30 nM final concentration) were initially incubated together in 10 µl of reaction buffer (25 mM Tris-Cl pH 7.5, 25 mM NaCl, 5 mM MnCl2, 5 mM MgCl2, 5 mM BME, 50 µg/ml bovine serum albumin and 0.05% (v/v) Tween-20) for 10 min at room temperature in AlphaPlate™-384 SW plates (Perkin-Elmer). Subsequently, 10 µl reaction buffer containing Flag-tagged LEDGF (30 nM final concentration), AS Ni-chelate donor beads (Perkin-Elmer; 5 µg/ml final) and AlphaLISA anti-FLAG acceptor beads (Perkin-Elmer; 5 µg/ml final) were added and protein association allowed to occur for 1 hour in the dark at 30°C before emission from the donor beads was measured using a PHERAstar FS plate-reader (BMG Labtech). Counter screen assays to ensure the compounds were not inhibiting the binding of the His or FLAG tags to the beads or quenching of the signal, were performed under the same reaction conditions except that a Flag-His6 fusion protein was used (20 nM final) instead of individual His6-tagged IN and Flag-tagged LEDGF proteins, and the initial 10 min incubation at room temperature was omitted.

[2] = target: T2, HIV integrase catalytic core domain core3H (C56S, F139D, F185H) (Human immunodeficiency virus type 1 group M subtype B, UniProt P12497, C1203S/F1286D/F1332H); assay: SPR binding to core3H; conditions: construct not given
T2 construct: catalytic core domain (CCD) IN (residues 50 to 210) containing the mutations C56S, F139D and F185H (core3H); made in house; host or cells: E. coli, pET28b(+)
Method: Core3H and core4H proteins (∼3×10^−8 moles) were “minimally” biotinylated on ice for 2 hours using an equimolar concentration of EZ-Link® Sulfo-NHS-LC-LC-Biotin (Pierce). To remove unreacted biotin reagent, biotinylated proteins were passed through a Superdex 75 (10/300 GL) column equilibrated in ‘SPR capture’ buffer (50 mM HEPES pH 7.4, 150 mM NaCl, 0.05% (v/v) Tween20, 5 mM DTT, 10 mM MgCl2). The eluted proteins were stored frozen in 50 µl aliquots at −70°C. Streptavidin (Sigma) was immobilized at 25°C onto a CM7 sensor chip (GE Healthcare) docked in a Biacore T200 upgrade instrument (GE Healthcare) using a previously described procedure resulting in immobilization levels of approximately 12000 RU of protein being coupled in all flow cells. The biotinylated core IN proteins were captured onto a Streptavidin chip surface in SPR capture buffer by injecting at 5 µL/min for 5 min over a single flow cell, typically resulting in immobilization of approximately 2300 RU of target protein. A minimally-biotinylated tyrosine kinase domain of CSF-1-R was captured (∼4300 RU) in a separate flow cell to provide for an unrelated negative control. […] All SPR binding experiments were performed at 20°C in SPR binding buffer (50 mM HEPES pH 7.4, 150 mM NaCl, 0.05% (v/v) Tween20, 5 mM DTT, 10 mM MgCl2, 5% (v/v) DMSO). Small molecules stock solutions were serially diluted (2-fold) in SPR binding buffer and injected for 30 sec contact time at 60 µL/min and then allowed to dissociate for 60 sec. The entire concentration series for each compound was performed in triplicate.
Raw sensorgram data were processed, solvent corrected and double referenced using Scrubber software (BioLogic Software, Australia). For easy comparison between data sets, all experiments were normalized using a normalization formula of Giannetti et al. To determine the binding affinity (KD), responses at equilibrium for each analyte were fitted to a 1∶1 steady state affinity model available within Scrubber.

HIV-1NL4-3 = assay: Virus infectivity assay (p24) in HuT78 cells; assay type: cell-based; conditions: Human immunodeficiency virus 1, p24 production
Method: (§2) HuT78 cells were seeded into 96 well microtiter plates at 50,000 cells per 50 µl per well in RF-10 containing 2 µg/ml polybrene (RF-10/2). Compounds were prepared to 4× final concentration in RF-10/2, and 30 µl was added to cells. HIV-1NL4–3 (40 µl in RF-10/2 containing 1600 plaque forming units (pfu)) was added to each well or 40 µl of RF-10/2 was added to the negative controls, and when assaying compound cytotoxicity. pfu were determined by titrating virus stocks on HT4LacZ cells as described by Rocancourt et al. After 24 hours, an additional 90 µl of media or media containing 1× compound was added to each well. At 4 days post-infection, 100 µl of media was removed from each well and replaced with 100 µl of fresh media with or without compound. 48 hours later supernatants were harvested and levels of extracellular p24 determined. Supernatants were diluted 1 in 10,000 and p24 levels assayed using the Vironostika p24 assay kit.

[3] = Cell toxicity counter screen of virus infectivity assay; assay type: cell-based; conditions: human, HuT78 cells
Method: as §2

Flag-His6 fusion protein = assay: AlphaScreen counter screen; conditions: Flag-His6 fusion protein 20 nM
Method: as §1, with “omitted. The specificity of FLAG-LEDGF for IN binding was confirmed by competing the FLAG-LEDGF with untagged LEDGF. At a 1∶1 molar ratio with FLAG-LEDGF, untagged LEDGF reduced the AS signal by 50%.” for “omitted.”

[4] = tested on: HIV-1 with IN Q148H/G140S (QHGS); assay: Single-round infectivity assay in 293T cells, IN QHGS mutant; assay type: cell-based; conditions: Human immunodeficiency virus 1, HEK-293T, read-out: EC50 cell infectivity assay, IN QHGS
Method: (§3) Single-round infectivity assays were performed with 293T cells. […]. […] Culture supernatants containing VSV-G pseudotyped virions were harvested 64 hours post-transfection, clarified by centrifugation to remove cell debris, and stored at −80°C. HIV IN mutations known to confer resistance to published IN inhibitors were prepared by site directed mutagenesis of the pol (IN) gene in a shuttle vector which contained the majority of the HIV gag and pol sequence. The mutated IN coding region was then sequence verified and exchanged for the wild-type coding sequence in the pHIV env-Luc reporter virus plasmid. Single round infection assays were conducted in 293T cells seeded in 96 well plates 16 hours prior to compound addition. Compounds were pre-incubated with cells for 4 hours at 37°C followed by the addition of sufficient virus to generate approximately 10,000 Luciferase light units in the absence of compound. Luciferase readout was measured 48 hours post-infection using the Bright-Glo™ reagent (Promega) according to the manufacturer’s instructions.

[5] = tested on: HIV-1 with IN N155H/E92Q (NHEQ); assay: Single-round infectivity assay in 293T cells, IN NHEQ mutant; assay type: cell-based; conditions: Human immunodeficiency virus 1, HEK-293T, read-out: EC50 cell infectivity assay, IN NHEQ
Method: as §3

HIV IN [6] = target: T3, HIV IN (Human immunodeficiency virus type 1 group M subtype B, UniProt P12497); assay: Strand transfer assay which did not contain LEDGF; assay type: biochemical; conditions: without LEDGF; data not shown
HIV-1 with wild type IN = assay: Single-round infectivity assay in 293T cells, wild type IN; assay type: cell-based; conditions: Human immunodeficiency virus 1, HEK-293T, read-out: EC50 cell infectivity assay, wild type IN
Method: as §3

HIV IN [7] = target: T3, HIV IN; conditions: cited from earlier work
HIV IN [8] = target: T3, HIV IN; conditions: read-out: IC50 strand transfer; cited from earlier work
[9] = tested on: LEDGF interaction with IN; set-up: method as in PMID 20473303; conditions: read-out: AS IC50; cited from earlier work
HIV-1 [10] = tested on: HIV-1; set-up: method as in PMID 20473303; conditions: MT-4 cells; read-out: EC50 HIV-1 infection of MT-4 cells; cited from earlier work
HIV-1 [11] = tested on: HIV-1; set-up: method as in PMID 20473303; conditions: PBMC cells; read-out: EC50 HIV-1 infection of PBMC cells; cited from earlier work
HIV IN [12] = target: T3, HIV IN; conditions: read-out: IC50 inhibition of strand transfer activity of HIV IN; cited from earlier work
HIV IN [13] = target: T3, HIV IN; conditions: read-out: IC50 active site directed strand transfer assay; cited from earlier work
LEDGF site of HIV IN = tested on: LEDGF site of HIV IN; set-up: method as in PMID 21767569; conditions: read-out: IC50 AS assay for binding at the LEDGF site; cited from earlier work

Q: With `O=C(O)c1c(CN2Cc3ccccc3C(=O)N(Cc3ccccc3)C2)ccc2c1OCO2` [Compound 4] as the compound, how does the IC50 [1] read?
A: The IC50 was 110 µM.

Q: What about the “binding in the SPR assay (in words)” value [2] of the same compound?
A: Its value is “did not bind”.

Q: What about the EC50 (HIV-1NL4-3) of the same compound?
A: Its EC50 is 275 µM.

Q: And the CC50 at 6 days [3]?
A: Its CC50 at 6 days is 265 µM.

Q: Which IC50 (Flag-His6 fusion protein) does the source give for `C=CCN(Cc1ccccc1C(=O)NC(c1ccc(OC)cc1)c1ccc(OC)cc1)Cc1ccc2c(c1C(=O)O)OCO2` [Compound 11] here?
A: The IC50 was 145 µM.

Q: And the EC50 (HIV-1NL4-3)?
A: Its EC50 is 29 µM.

Q: And the CC50 at 6 days [3]?
A: Its CC50 at 6 days is greater than 100 µM.

Q: And the EC50 [4]?
A: Its EC50 is 54 µM.

Q: What about the EC50 [5] of the same compound?
A: The EC50 was 37 µM.

Q: And the “activity in strand transfer assay” value (HIV IN [6])?
A: The value was “inactive”.

Q: With `Cc1nnc(C(=O)NC(C)(C)c2nc(C(=O)NCc3ccc(F)cc3)c(O)c(=O)n2C)o1` [raltegravir, reference compound] as the compound, how does the EC50 [4] read?
A: Its EC50 is greater than 1 µM.

Q: What about the EC50 [5] of the same compound?
A: The EC50 was greater than 1 µM.

Q: And the EC50 (HIV-1 with wild type IN)?
A: Its EC50 is 0.01 µM.

Q: Which IC50 [1] does the source give for `O=C1Cc2ccccc2/C1=C\c1ccc2c(c1C(=O)O)OCO2` [Compound 2] here?
A: The IC50 was 200 µM.

Q: For `O=C(O)c1c(/C=C2\c3ccccc3CC2O)ccc2c1OCO2` (stereo not shown) [Compound 3], which IC50 [1] is on record?
A: Its IC50 is 270 µM.

Q: Which IC50 [1] does the source give for `C=CCN(Cc1ccccc1C(=O)NC(CCC)c1ccc(OC)cc1)Cc1ccc2c(c1C(=O)O)OCO2` (stereo not shown) [Compound 10] here?
A: Its IC50 is 29 µM.

Q: What about the IC50 (Flag-His6 fusion protein) of the same compound?
A: The IC50 was 175 µM.

Q: And the “activity in strand transfer assay” value (HIV IN [6])?
A: Its value is “inactive”.

Q: For `O=C(NCC1CCCCC1)c1cc(S(=O)(=O)N2CCCCC2)cc(O)c1O` [N-(cyclohexylmethyl)-2,3-dihydroxy-5-(piperidin-1-ylsulfonyl) benzamide], which IC50 (HIV IN [7]) is on record?
A: The IC50 was 8 µM.

Q: And the IC50 (HIV IN [8])?
A: Its IC50 is 19 µM.

Q: With `COc1ccc(CNC(=O)c2ccccc2CN(C)Cc2ccc3c(c2C(=O)O)OCO3)cc1` [Compound 7] as the compound, how does the IC50 [1] read?
A: The IC50 was 220 µM.

Q: For `COc1ccc(CN2CN(Cc3ccc4c(c3C(=O)O)OCO4)Cc3ccccc3C2=O)cc1` [Compound 5], which IC50 [1] is on record?
A: The IC50 was 600 µM.

Q: For `COc1ccc(CNC(=O)c2ccccc2CNCc2ccc3c(c2C(=O)O)OCO3)cc1` [Compound 6], which IC50 [1] is on record?
A: Its IC50 is 270 µM.

Q: What about the “binding in the SPR assay (in words)” value [2] of the same compound?
A: Its value is “binding could not be detected”.

Q: What does the source list for `C=CCN(Cc1ccccc1C(=O)NCc1ccc(OC)cc1)Cc1ccc2c(c1C(=O)O)OCO2` [Compound 9]?
A: IC50 [1]: 815 µM; binding in the SPR assay (in words) [2]: retained SPR activity

Q: Which IC50 [1] does the source give for `CN(Cc1ccccc1C(=O)NCC1CCCCC1)Cc1ccc2c(c1C(=O)O)OCO2` [Compound 8] here?
A: The IC50 was 100 µM.

Q: And the “binding in the SPR assay (in words)” value [2]?
A: The value was “loss of SPR activity”.

Q: Which results are given for `CCCC(C(=O)O)c1c(C)nc2ccc(Cl)cc2c1-c1ccccc1` (stereo not shown) [LEDGIN-6]?
A: IC50 [9]: 1.37 µM; EC50 (HIV-1 [10]): 2.73 µM; EC50 (HIV-1 [11]): 3.45 µM; IC50 (HIV IN [12]): 19.5 µM

Q: With `O=C(O)C(O)=CC(=O)c1cn(Cc2ccc(F)cc2)c2cccc(O)c12` [CHI-1043, 4-[1-(4-Fluorobenzyl)-4-hydroxy-1H-indol-3-yl]-2-hydroxy-4-oxobut-2-enoic acid] as the compound, how does the IC50 (HIV IN [13]) read?
A: The IC50 was 0.14 µM.

Q: What about the IC50 (LEDGF site of HIV IN) of the same compound?
A: The IC50 was 36 µM.
